Results as given in KR19980042868A, “인슐린-유사 작용을 갖는 이노시톨글리칸” (피셔 한스-위르겐, priority 1996, dated 1998).

Legend:
[1] = test system: rat adipocytes (랫트 지방 세포); assay: Lipogenesis (지방형성): incorporation of D-[3-3H]glucose into toluene-soluble lipids in isolated rat adipocytes; type: cell-based; conditions: 90 min, 37°C; for EC50: concentration giving 50% of the compound's own maximum stimulation; for %Insmax: maximum insulin stimulation ratio (with/without insulin) = 100%
[2] = test system: rat adipocytes (랫트 지방 세포); assay: Glucose transport (글루코오스 이송): uptake of 2-[3H]-deoxyglucose in isolated rat adipocytes; type: cell-based; conditions: 15 min, 37°C, then 2-[3H]-deoxyglucose at room temperature; for EC50: concentration giving 50% of the compound's own maximum stimulation; for %Insmax: maximum insulin stimulation ratio = 100%

“HO-PO(H)O-6Manα1-4GluNα1-6(L)이노시톨-1,2-(사이클릭)-포스페이트” was tested, and the EC50 [1] was 15 µM, the “%Insmax” value [1] was 25% and the EC50 [2] was 15 µM. The “%Insmax” value [2] was 9%.

“HO-PO(H)O-6Manα1-6-Manα1-6Manα1-6Manα1-3GluNβ1-6(L)이노시톨-3-포스페이트 [I]” was tested, and the EC50 [1] was 20 µM, the “%Insmax” value [1] was 18% and the EC50 [2] was 50 µM. For the same substance, the “%Insmax” value [2] was 14%.

With HO-PO(H)O-6Manα1-4GluNα1-6(L)이노시톨 the EC50 [1] was 25 µM, the “%Insmax” value [1] was 15% and the EC50 [2] was 10 µM. The “%Insmax” value [2] was 2%.

“HO-PO(H)O-6Manα(Manα1-2)-2Manα1-6Manα1-4GluNβ1-6(L)이노시톨-1,2-(사이클릭)-포스페이트 [화합물 A]” was tested, and the EC50 [1] was 7 µM, the “%Insmax” value [1] was 59% and the EC50 [2] was 8 µM. The “%Insmax” value [2] was 28%.

In the case of “HO-PO(H)O-6Manα1(Manα1-2)-2Manα1-6Manα1-4GluNβ1-6(D)이노시톨-1,2-(사이클릭)-티오포스페이트 [C]”, the EC50 [1] is reported as 7 µM, the “%Insmax” value [1] is reported as 64% and the EC50 [2] is reported as 10 µM. For the same substance, the “%Insmax” value [2] was 29%.

In the case of “HO-PO(H)O-6Manα1(Manα1-2)-2Manα1-6Manα1-3GluNβ1-6(L)이노시톨-3-포스페이트 [D]”, the EC50 [1] is reported as 20 µM, the “%Insmax” value [1] is reported as 33% and the EC50 [2] is reported as 18 µM. For the same substance, the “%Insmax” value [2] was 18%.

With “HO-PO(H)O-6Manα1(Manα1-2)-2Manα1-6Manα1-4GluNα1-6(L)이노시톨-2-포스페이트 [F]” the EC50 [1] was 15 µM, the “%Insmax” value [1] was 53% and the EC50 [2] was 25 µM. The “%Insmax” value [2] was 26%.

“HO-PO(H)O-6Manα1(Manα1-2)-2Manα1-6Manα1-4GluNβ1-6(D)이노시톨-1,2-(사이클릭)-포스페이트 [화합물 B]” was tested, and the EC50 [1] was 8.2 µM, the “%Insmax” value [1] was 77% and the EC50 [2] was 8.1 µM. For the same substance, the “%Insmax” value [2] was 41%.

With “HO-PO(H)O-6Manα1(Manα1-2)-2Manα1(6-EtNP)-6Manα1(2-EtNP)-4GluNβ1-6(D)이노시톨-1,2-(사이클릭)-포스페이트” the EC50 [1] was 60 µM, the “%Insmax” value [1] was 48% and the EC50 [2] was 30 µM. The “%Insmax” value [2] was 34%.
